Measured values as given in patent US12428401B2, “Salt of an aminopyridine derivative compound, a crystalline form thereof, and a process for preparing the same” (Yuhan Corporation, priority 2017, dated 2025).
Counter-ions that a name gives are not always drawn. Like-named read-outs stand apart in the source and are kept apart here.

What was measured:
[1] = Stability test under stress conditions (PXRD, DSC, appearance, HPLC); conditions: for Content / Purity: HPLC
[2] = Pharmacokinetic comparison test in rats treated with esomeprazole; assay type: in vivo, rats (SD rats); conditions: male, SD, rat, plasma, po, 30 mg/kg, Rats treated with esomeprazole (i.v. 5 mg/2 mL/kg for 3 days), oral 30 mg/5 ml/kg
Text: (§1) Specifically, the maximum plasma concentration (Cmax) and the area under the plasma concentration curve (AUClast) in the normal rats and the rats treated with esomeprazole were compared to evaluate the absorption of the drugs in the actual animals.
(§2) In order to compare the pharmacokinetic parameters, 8-week old male rats (SD rats) with a body weight of about 250 g were used as test animals.
A comparison of the pharmacokinetic parameters (i.e., the maximum plasma concentration and the area under the plasma concentration curve) calculated therefrom are shown in Table 7 and FIGS. 12 and 13.

[3] = Pharmacokinetic comparison test in beagle dogs; assay type: in vivo; conditions: male, dog, plasma, 5 mg/kg, oral 5 mg/2 mL/kg in 0.5% methylcellulose
Text: A comparison of the pharmacokinetic parameters (i.e., the maximum plasma concentration and the area under the plasma concentration curve) calculated therefrom are shown in Table 8 and FIG. 14.

[4] = Pharmacokinetic comparison test in normal rats; assay type: in vivo, rats (SD rats); conditions: male, SD, rat, plasma, 30 mg/kg, Normal rats, oral 30 mg/5 ml/kg in 0.5% methylcellulose
Text: as §1, §2

[5] = accelerated conditions; for Content / Purity: HPLC
Procedure: The five compounds were tested for stability under stress conditions and accelerated conditions.

[6] = stress conditions, start to 4 weeks
[7] = read-out: Area under the plasma concentration curve (AUClast)
[8] = read-out: Maximum plasma concentration (Cmax)

C=CC(=O)Nc1cc(Nc2nccc(-n3cc(CN(C)C)c(-c4ccccc4)n3)n2)c(OC)cc1N1CCOCC1 [Ex. 1, mesylate salt of N-(5-(4-(4-((dimethylamino)methyl)-3-phenyl-1H-pyrazol-1-yl)pyrimidine-2-ylamino)-4-methoxy-2-morpholinophenyl)acrylamide]
Stability (overall conclusion of the stability test) ([1]; stress and accelerated conditions together, purity, water content, PXRD pattern, appearance): excellent in stability
Appearance (color) ([1]; stress conditions, 2 weeks): White
DSC onset ([1]; stress conditions, 2 weeks): 214 °C
Water content ([1]; stress conditions, 2 weeks): 2.71%
Appearance (color) ([1]; stress conditions, 4 weeks): White
DSC onset ([1]; stress conditions, 4 weeks): 214 °C
Water content ([1]; stress conditions, 4 weeks): 2.70%
Content ([1]; stress conditions, 2 weeks): 97.7%
Purity ([1]; stress conditions, 2 weeks): 99.3%
Content ([1]; stress conditions, 4 weeks): 98.9%
Purity ([1]; stress conditions, 4 weeks): 99.3%
Content ([1]; stress conditions, Start): 98.8%
Purity ([1]; stress conditions, Start): 99.2%
Appearance (color) ([1]; stress conditions, Start): White
DSC onset ([1]; stress conditions, Start): 214 °C
Water content ([1]; stress conditions, Start): 2.48%
Content Change [1, 6]: +0.1%
Purity Change [1, 6]: +0.1%
Water content Change [1, 6]: +0.22%
AUC(0-t) [2, 7]: 5210 ng·h/mL
Cmax [2, 8]: 428 ng/mL
AUC(0-t) [3, 7]: 812 ng·h/mL
Cmax [3, 8]: 135 ng/mL
AUC(0-t) [4, 7]: 8140 ng·h/mL
Cmax [4, 8]: 816 ng/mL
DSC onset ([5]; 1 mo): 214 °C
Water content ([5]; 1 mo): 2.73%
DSC onset ([5]; 3 mos): 214 °C
Water content ([5]; 3 mos): 3.19%
DSC onset ([5]; 6 mos): 214 °C
Water content ([5]; 6 mos): 3.01%
Content ([5]; 1 mo): 98.9%
Purity ([5]; 1 mo): 99.3%
Content ([5]; 3 mos): 98.9%
Purity ([5]; 3 mos): 99.3%
Content ([5]; 6 mos): 99.1%
Purity ([5]; 6 mos): 99.3%
Content ([5]; Start): 98.8%
Purity ([5]; Start): 99.2%
DSC onset ([5]; Start): 214 °C
Water content ([5]; Start): 2.48%
Content Change ([5]; start to 6 months): +0.3%
Purity Change ([5]; start to 6 months): +0.1%
Water content Change ([5]; start to 6 months): +0.53%
